In patent US5250679A, “Nonpeptidyl platelet aggregation inhibitors having specificity for the GPIIb III receptor” (Genentech, Inc., priority 1992, dated 1993):
Structures can show the parent of a compound that is named as a salt. Where two headings read alike, the source gives them in different places.

Legend:
GP IIb IIIa = biological target: T1, GP IIb IIIa (Homo sapiens, UniProt P05106+P08514); test: Fibrinogen-GP IIb IIIa Receptor ELISA Binding Assay (Fg/IIbIIIa)
T1 construct: from tissue; host or cells: outdated human platelets
T1 sequence (P08514 32-887 limits assumed): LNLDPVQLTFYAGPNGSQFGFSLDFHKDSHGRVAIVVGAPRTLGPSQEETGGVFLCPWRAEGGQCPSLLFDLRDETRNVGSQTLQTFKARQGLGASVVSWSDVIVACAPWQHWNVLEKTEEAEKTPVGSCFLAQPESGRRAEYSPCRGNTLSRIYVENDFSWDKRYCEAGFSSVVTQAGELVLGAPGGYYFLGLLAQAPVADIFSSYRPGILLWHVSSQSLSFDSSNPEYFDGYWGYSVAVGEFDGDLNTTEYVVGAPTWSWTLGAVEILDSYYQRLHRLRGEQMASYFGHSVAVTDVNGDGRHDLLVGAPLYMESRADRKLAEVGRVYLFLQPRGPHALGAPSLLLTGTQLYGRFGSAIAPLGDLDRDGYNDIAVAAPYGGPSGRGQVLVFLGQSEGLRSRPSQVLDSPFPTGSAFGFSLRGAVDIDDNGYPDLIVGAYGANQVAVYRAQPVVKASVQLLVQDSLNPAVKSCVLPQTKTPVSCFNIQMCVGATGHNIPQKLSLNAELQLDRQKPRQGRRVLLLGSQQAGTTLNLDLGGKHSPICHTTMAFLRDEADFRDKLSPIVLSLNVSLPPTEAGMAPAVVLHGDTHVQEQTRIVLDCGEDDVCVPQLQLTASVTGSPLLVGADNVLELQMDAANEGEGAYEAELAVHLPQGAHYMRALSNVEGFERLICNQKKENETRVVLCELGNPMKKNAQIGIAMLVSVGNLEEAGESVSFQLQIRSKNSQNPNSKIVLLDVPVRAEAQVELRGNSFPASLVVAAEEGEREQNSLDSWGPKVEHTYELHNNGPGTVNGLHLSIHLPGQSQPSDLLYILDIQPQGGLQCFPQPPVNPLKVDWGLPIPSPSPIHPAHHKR
T1 sequence (P08514 891-1039 partner limits assumed): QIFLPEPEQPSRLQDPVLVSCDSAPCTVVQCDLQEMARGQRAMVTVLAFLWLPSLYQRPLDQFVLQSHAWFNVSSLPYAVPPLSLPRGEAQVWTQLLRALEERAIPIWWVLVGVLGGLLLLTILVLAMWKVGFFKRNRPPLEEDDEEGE
T1 sequence (P05106 27-788): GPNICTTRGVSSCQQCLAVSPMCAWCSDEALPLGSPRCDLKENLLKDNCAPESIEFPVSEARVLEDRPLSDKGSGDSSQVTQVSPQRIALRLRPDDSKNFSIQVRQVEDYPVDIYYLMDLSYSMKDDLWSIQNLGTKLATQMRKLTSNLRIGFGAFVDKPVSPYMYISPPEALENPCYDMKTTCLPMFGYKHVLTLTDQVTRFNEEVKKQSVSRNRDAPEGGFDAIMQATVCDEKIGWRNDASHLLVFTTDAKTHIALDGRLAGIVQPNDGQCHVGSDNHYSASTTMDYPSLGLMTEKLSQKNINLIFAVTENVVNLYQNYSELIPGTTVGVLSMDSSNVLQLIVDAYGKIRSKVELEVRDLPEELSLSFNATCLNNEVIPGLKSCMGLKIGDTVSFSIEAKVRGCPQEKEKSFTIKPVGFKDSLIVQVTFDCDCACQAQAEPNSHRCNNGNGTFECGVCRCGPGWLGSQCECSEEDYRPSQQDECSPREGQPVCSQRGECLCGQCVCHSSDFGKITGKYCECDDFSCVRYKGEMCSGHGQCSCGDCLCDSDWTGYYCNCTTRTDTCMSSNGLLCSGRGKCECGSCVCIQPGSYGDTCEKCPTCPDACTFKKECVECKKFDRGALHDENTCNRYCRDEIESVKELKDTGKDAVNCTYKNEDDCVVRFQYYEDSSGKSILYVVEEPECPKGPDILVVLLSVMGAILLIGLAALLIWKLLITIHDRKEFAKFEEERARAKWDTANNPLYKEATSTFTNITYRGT
Protocol: Briefly, microtiter plates are coated with fibrinogen (10 mg/ml) and then blocked with TACTS buffer containing 0.5% bovine serum albumin (BSA). […] After another wash a goat anti-mouse IgG conjugated to horseradish peroxidase is added. […] The reaction is stopped with 1N sulfuric acid and the absorbance at 492 nm is recorded. […] Outdated human platelets are washed 3 times with 10 mM tris-HCl, 150 mM NaCl (TBS), 1 mM EDTA, pH 7.5, and centrifuged at 2000×g to pellet cells. […] The supernatant fraction is collected and the supernatant is loaded onto a concanavalin-A column, previously equilibrated in TBS, 1 mM Ca2 Cl2, 0.1% Triton, 0.05% NaN3 and eluted with 0.2M a-methylmannoside. Fractions are pooled and loaded onto a heparin-agarose column. The flowthrough is collected and concentrated on an Amicon YM 30 filter to a volume of approximately 5-10 ml. The concentrate is then applied to an S-300 column (500 ml) and 6 ml fractions are collected. The GP IIb IIIa containing fractions are collected, pooled, and stored at -80° C. […] The precipitate is spun down in appropriate size bottles at 2000×g. The supernatant is decanted and the precipitate resuspended in 150 mM NaCl (approximately 50% of the original volume). […] The suspension is spun down and the precipitate is resuspended in Tris-saline in a minimal volume (approximately 5% of the original volume). Any remaining insoluble material is spun down at 2000 rpm in a Sorval type centrifuge and the fibrinogen supernatant is decanted and dialyzed overnight at 4° C. against Tris-saline. Characterization of the fibrinogen is by the Bradford protein assay, SDS-PAGE, and/or Western blotting using well known standard procedures. Briefly, 96 well plates are coated (Type Nunc 1 MaxisorpTM) with 10 mg/ml purified fibrinogen ([…]), and allowed to stand overnight at 4° C. […] The plates are again washed three times with PBS/Tween and then […] of sample in TNCNT is added. The mixture is incubated for 15 minutes at room temperature on a plate shaker. […] Fifty ml of this diluted GP IIb IIIa is then added to each well and incubated on a plate shaker at room temperature. After one hour, the plates are washed four times with PBS/Tween and 100 ml of a polyclonal or monoclonal antibody specific for GP IIIa such as AP3 (1 mg/ml) (See e.g. […] After a one hour incubation at room temperature on a plate shaker, the samples are washed 4 times with PBS/Tween. […] The color develops within about 3 to 20 minutes and the reaction is stopped with 100 ml 1M H2 SO4. The optical density at 492 nm vs 405 nm is recorded and IC50 values are determined.

[1] = system: human platelet rich plasma (PRP); test: In Vitro Human Platelet Aggregation Assay (PA); format: cell-based; conditions: Homo sapiens, Platelet
Protocol: In addition to the GPIIb IIIa ELISA assay, platelet aggregation assays may be performed in human platelet rich plasma (PRP). […] The blood is centrifuged at 160×g for 10 min at 22° C. and then allowed to stand for 5 min after which the PRP is decanted. Platelet poor plasma (PPP) is isolated from the remaining blood after centrifugation at 2000×g for 25 min. The platelet count of the PRP is adjusted to ca. 300,000 per microliter with PPP.
A 225 mL aliquot of PRP plus 25 mL of either a dilution of the test sample or a control (PBS) is incubated for 5 min in a Chrono-log Whole Blood Aggregometer at 25° C. An aggregating agent (collagen, 1 mg/ml; U46619, 100 ng/ml; or ADP, 8 mM) is added and the platelet aggregation recorded.
Platelet aggregation assays are performed in human platelet rich plasma (PRP). […] The blood is centrifuged at 160×g for 10 minutes at 22° C. and allowed to stand for 5 minutes after which the PRP is decanted. Platelet poor plasma (PPP) is isolated from the remaining blood after centrifugation at 2000×g for 25 minutes. The platelet count of the PRP is diluted to about 300,000 platelets per microliter with PPP.
A 225 ml aliquot of PRP plus 25 ml of either a dilution of the test inhibitor sample or a control (PBS) is incubated for 5 minutes in a Chrono-log Whole Blood Aggregometer at 25° C. An aggregating agent (collagen, 1 mg/ml; U46619, 100 ng/ml; or ADP, 17 mM) is added and the transmission is recorded.

[2] = Example 29, Cmpd # 1-105, read-out: IC50 Fg/IIbI
[3] = Example 30, G # table, read-out: IC50 (μM) Fg/IIbIIIa
[4] = citrate, read-out: PA IC50 (μM) (citrate)
[5] = Examples 29 and 30, Cmpd # tables, read-out: IC50 (μM) Fg/IIbIIIa

Row | SMILES | IC50 (GP IIb IIIa; [2]) | IC50 (GP IIb IIIa; [3]) | IC50 [1, 4] | IC50 ([1]; heparin, read-out: PA IC50 (μM) (heparin)) | IC50 (GP IIb IIIa; [5])
1 | CC(CC(=O)O)N1CC(=O)N(C)c2ccc(C#CCCCNC(=N)N)cc2C1=O (stereo not shown) [Cmpd 38, 1-methyl-4-(2-carboxy-1-methylethyl)-7-(5-guanidino-1-pentynyl)-3,4-dihydro-1H-1,4, benzodiazepine-2,5-dione trifluroacetate] | 0.018 µM | 0.018 µM | 1.19 µM |  | 
2 | O=C(O)CCN1CC(=O)N(Cc2ccc(Cl)cc2)c2ccc(-c3ccc(N4CCNCC4)cc3)cc2C1=O [Cmpd 73, 1-(p-chlorobenzyl)-7-[4-(1-piperazine)phenyl]-4-(2-carboxyethyl)-3,4-dihydro-1H-1,4-benzodiazpine-2,4-dione trifluoroacetate] | 0.007 µM | 0.007 µM | 0.67 µM | 2.3 µM | 
3 | N=C(N)NCCCCCc1ccc2c(c1)C(=O)N(CCC(=O)O)CC(=O)N2Cc1ccc2ccccc2c1 [Cmpd 75, 1-(2-napthyl)methyl-4-(2-carboxyethyl)-7-(5-guanidinopentyl)-3,4-dihydro-1H-1,4-benzodiazepine-2,5-dione trifluoroacetate] | 0.011 µM | 0.011 µM | 6.88 µM |  | 
4 | NCCCCCc1ccc2c(c1)C(=O)N(CCC(=O)O)CC(=O)N2Cc1ccc2ccccc2c1 [Cmpd 76, 1-(2-napthyl)methyl-4-(2-carboxyethyl)-7-(5-aminopentyl)-3,4-dihydro-1H-1,4-benzodiazepine-2,5-dione trifluoroacetate] | 0.077 µM | 0.077 µM | 28.9 µM |  | 
5 | N=C(N)NCCCCCc1ccc2c(c1)C(=O)N(CCC(=O)O)CC(=O)N2Cc1cccc2ccccc12 [Cmpd 77, 1-(1-napthyl)methyl-4-(2-carboxyethyl)-7-(5-guanidinopentyl)-3,4-dihydro-1H-1,4-benzodiazepine-2,5-dione trifluoroacetate] | 0.008 µM | 0.008 µM | 2.65 µM |  | 
6 | NCCCCCc1ccc2c(c1)C(=O)N(CCC(=O)O)CC(=O)N2Cc1cccc2ccccc12 [Cmpd 78, 1-(1-napthyl)methyl-4-(2-carboxyethyl)-7-(5-aminopentyl)-3,4-dihydro-1H-1,4-benzodiazepine-2,5-dione trifluoroacetate] | 0.066 µM | 0.066 µM | 6.53 µM |  | 
7 | COc1ccc(CN2C(=O)CN(CCC(=O)O)C(=O)c3cc(CCCCCCN)ccc32)cc1 [Cmpd 81, 1-(p-methoxybenzyl)-4-(2-carboxyethyl)-7-(6-aminohexyl)-3,4-dihydro-1H-1,4-benzodiazepine-2,5-dione trifluoroacetate] | 0.023 µM | 0.023 µM | 0.98 µM |  | 
8 | NCCCCCCc1ccc2c(c1)C(=O)N(CCC(=O)O)CC(=O)N2Cc1cccc2ccccc12 [Cmpd 82, 1-(1-napthyl)methyl-4-(2-carboxyethyl)-7-(6-aminohexyl)-3,4-dihydro-1H-1,4-benzodiazepine-2,5-dione trifluoroacetate] | 0.015 µM | 0.015 µM | 0.76 µM |  | 
9 | NCCCCCCc1ccc2c(c1)C(=O)N(CCC(=O)O)CC(=O)N2Cc1ccc2ccccc2c1 [Cmpd 83, 1-(2-napthyl)methyl-4-(2-carboxyethyl)-7-(6-aminohexyl)-3,4-dihydro-1H-1,4-benzodiazepine-2,5-dione trifluoroacetate] | 0.017 µM | 0.017 µM | 3.19 µM |  | 
10 | COc1ccc(CN2C(=O)CN(CCC(=O)O)C(=O)c3cc(CCCCCCNC(=N)N)ccc32)cc1 [Cmpd 84, 1-(p-methoxybenzyl)-4-(2-carboxyethyl)-7-(6-guanidinohexyl)-3,4-dihydro-1H-1,4-benzodiazepine-2,5-dione trifluoroacetate] | 0.024 µM | 0.024 µM | 10.4 µM |  | 
11 | N=C(N)NCCCCCCc1ccc2c(c1)C(=O)N(CCC(=O)O)CC(=O)N2Cc1cccc2ccccc12 [Cmpd 85, 1-(1-napthyl)methyl-4-(2-carboxyethyl)-7-(6-guanidinohexyl)-3,4-dihydro-1H-1,4-benzodiazepine-2,5-dione trifluoroacetate] | 0.014 µM | 0.014 µM | 6.2 µM |  | 
12 | NCCCCCCc1ccc2c(c1)C(=O)N(CCC(=O)O)CC(=O)N2Cc1cccc(NC(=O)CCCN)c1 [Cmpd 112, 1-[3-(N-(4-aminobuturyl))aminophenyl]methyl-4-(2-carboxyethyl)-7-(6-aminohexyl)-3,4-dihydro-1H-1,4-benzodiazapine-2,5-dione bistrifluoroacetate] |  | 0.008 µM | 0.4 µM |  | 0.008 µM
13 | N=C(N)NCCCCCCc1ccc2c(c1)C(=O)N(CCC(=O)O)CC(=O)N2Cc1cccc(NC(=O)CCCNC(=N)N)c1 [Cmpd 113] |  | 0.01 µM | 0.87 µM |  | 0.01 µM
14 | NCCCCCCc1ccc2c(c1)C(=O)N(CCC(=O)O)CC(=O)N2Cc1cccc(NC(=O)CCCCN)c1 [Cmpd 114] |  | 0.008 µM | 0.31 µM |  | 0.008 µM
15 | N=C(N)NCCCCCCc1ccc2c(c1)C(=O)N(CCC(=O)O)CC(=O)N2Cc1cccc(NC(=O)CCCCNC(=N)N)c1 [Cmpd 115] |  | 0.018 µM | 0.92 µM |  | 0.013 µM
16 | NCCCCCCc1ccc2c(c1)C(=O)N(CCC(=O)O)CC(=O)N2Cc1cccc(NC(=O)CCCCCN)c1 [Cmpd 116] |  | 0.011 µM | 0.27 µM |  | 0.011 µM
17 | N=C(N)NCCCCCCc1ccc2c(c1)C(=O)N(CCC(=O)O)CC(=O)N2Cc1cccc(NC(=O)CCCCCNC(=N)N)c1 [Cmpd 117] |  | 0.013 µM | 0.64 µM |  | 0.013 µM
18 | NCCCCCCc1ccc2c(c1)C(=O)N(CCC(=O)O)CC(=O)N2Cc1cccc(N)c1 [Cmpd 122] |  | 0.01 µM | 0.49 µM |  | 0.012 µM
19 | CCCCC(=O)Nc1cccc(CN2C(=O)CN(CCC(=O)O)C(=O)c3cc(CCCCCCN)ccc32)c1 [Cmpd 123] |  | 0.015 µM | 0.64 µM |  | 0.015 µM
20 | CCCCC(=O)Nc1cccc(CN2C(=O)CN(CCC(=O)O)C(=O)c3cc(CCCCCCNC(=N)N)ccc32)c1 [Cmpd 124] |  | 0.012 µM | 2.76 µM |  | 0.012 µM
21 | N=C(N)Nc1ccc(C(=O)Nc2cccc(CN3C(=O)CN(CCC(=O)O)C(=O)c4cc(CCCCCCN)ccc43)c2)cc1 [Cmpd 127, 1-(3-(4-guanidinobenzoyl)aminophenyl)methyl-4-(2-carboxyethyl)-7-(6-aminohexyl)-3,4-dihydro-1H-1,4-benzodiazapine-2,5-dione] |  | 0.008 µM | 0.35 µM |  | 0.008 µM
22 | N=C(N)NCC#Cc1cccc(C(=O)NCCC(=O)O)c1 [Cmpd 159] |  |  |  |  | 0.552 µM
23 | N=C(N)NCCC#Cc1cccc(C(=O)NCCC(=O)O)c1 [Cmpd 160] |  |  |  |  | 1.01 µM
24 | NCCCC#Cc1cccc(C(=O)NCCC(=O)O)c1 [Cmpd 161] |  |  |  |  | 9 µM
25 | N=C(N)NCCCC#Cc1cccc(C(=O)NCCC(=O)O)c1 [Cmpd 162] |  |  |  |  | 1 µM
26 | NCCCCC#Cc1cccc(C(=O)NCCC(=O)O)c1 [Cmpd 163] |  |  |  |  | 2.7 µM
27 | N=C(N)NCCCCC#Cc1cccc(C(=O)NCCC(=O)O)c1 [Cmpd 164] |  |  |  |  | 3.4 µM
